Earlier results as cited in patent US20030082102A1, “Radioactive platinum complexes for cancer treatment” (priority 2001, published 2003).
Read-outs that look alike come from different tables or passages of the source.

How the values were obtained:
tissue culture = conditions: non-radioactive drug with external radiation
[1] = tracer quantities
mammalian cells = conditions: for radiopotentiation / potentiation of chemotherapy effectiveness: cell culture, Howell 1994

Row | SMILES | Radiation enhancer in vitro? (tissue culture) | radiopotentiation / potentiation of chemotherapy effectiveness (mammalian cells) | other results
1 | N.N.O=C([O-])C1(C(=O)[O-])CCC1.[Pt+2] [Carboplatin, 1,1-Cyclobutanedicarboxylate diamine platinum (II)] | Yes | – | –
2 | CC(C)N.CC(C)N.[Cl-].[Cl-].[OH-].[OH-].[Pt] [Iproplatin, Cis-dichloro,trans-dihydroxybis-isopropylamine platinum (IV)] | Yes | – | –
3 | CC(=O)[O][Pt]([NH2])([Cl])([Cl])([NH]C1CCCCC1)[O]C(C)=O [JM216] | Yes | – | –
4 | [NH2][Pt]([NH2])([Cl])[Cl] [^195mPt-cisplatinum] | – | no potentiation of chemotherapy effectiveness | tumor drug level (tumor uptake) ([1]; intra-arterial infusion, patients with nonresectable hepatoma): 34-55 % of given dose; tumor drug level (tumor uptake) ([1]; intravenous route): < 5 % of given dose; radiotoxicity above and beyond chemical toxicity (mammalian cells; cell culture studies, Howell et al 1994): no radiotoxicity above and beyond its chemical toxicity
5 | N.N.[Cl][Pt+2][Cl] [^195mPt-trans-cisplatinum] | – | showed radiopotentiation | –
